Data set [1] concerns Nakaseomyces glabratus. The data set is described as follows: Antifungal activity against Candida glabrata 61L assessed as reduction in fungal growth incubated for 24 hrs by CLSI based serial microbroth dilution method. In kind it is functional. (In broth dilution the organism is exposed to a series of concentrations in liquid medium.)
Data set [2] deals with Candida albicans. The data set is described as follows: Antifungal activity against Candida albicans 604M assessed as reduction in fungal growth incubated for 48 hrs by CLSI based serial microbroth dilution method. In kind it is functional.
Data set [3] deals with Candida parapsilosis. Put plainly: Antifungal activity against Candida parapsilosis ATCC 22019 assessed as reduction in fungal growth incubated for 24 hrs by CLSI based serial microbroth dilution method. In kind it is functional. The following applies: Lodderomyces parapsilosis.
In data set [4] the test system is Candida parapsilosis. Put plainly: Antifungal activity against Candida parapsilosis ATCC 22019 assessed as reduction in fungal growth incubated for 48 hrs by CLSI based serial microbroth dilution method. It is filed as functional. As to conditions: Lodderomyces parapsilosis.
The test system of data set [5] is Candida albicans. The data set is described as follows: Antifungal activity against Candida albicans 8R assessed as reduction in fungal growth incubated for 48 hrs by CLSI based serial microbroth dilution method. It is filed as functional.
In data set [6] the test system is Cyberlindnera jadinii. The data set is described as follows: Antifungal activity against Candida utilis 84 assessed as reduction in fungal growth incubated for 24 hrs by CLSI based serial microbroth dilution method. It is filed as functional. As to conditions: Williopsis jadinii.
Data set [7] deals with Microsporum canis. Put plainly: Antifungal activity against Microsporum canis B-200 assessed as reduction in fungal growth incubated for 48 hrs by CLSI based serial microbroth dilution method. In kind it is functional.
Data set [8] concerns Pichia kudriavzevii. The data set is described as follows: Antifungal activity against Candida krusei 432M assessed as reduction in fungal growth incubated for 24 hrs by CLSI based serial microbroth dilution method. It is filed as functional.
Data set [9] relates to Cyberlindnera jadinii. Put plainly: Antifungal activity against Candida utilis 84 assessed as reduction in fungal growth incubated for 48 hrs by CLSI based serial microbroth dilution method. It is filed as functional. As to conditions: Williopsis jadinii.
Data set [10] relates to Candida albicans. The data set is described as follows: Antifungal activity against Candida albicans CBS 8837 assessed as reduction in fungal growth incubated for 24 hrs by CLSI based serial microbroth dilution method. In kind it is functional.
For data set [11], the system named is Trichophyton rubrum. The data set is described as follows: Antifungal activity against Trichophyton rubrum 2002 assessed as reduction in fungal growth incubated for 24 hrs by CLSI based serial microbroth dilution method. In kind it is functional.
Data set [12] concerns Cryptococcus neoformans. Put plainly: Antifungal activity against Cryptococcus neoformans assessed as reduction in fungal growth incubated for 48 hrs by CLSI based serial microbroth dilution method. It is filed as functional.
In data set [13] the test system is Candida albicans. Put plainly: Antifungal activity against Candida albicans ATCC 24433 assessed as reduction in fungal growth incubated for 48 hrs by CLSI based serial microbroth dilution method. It is filed as functional.
The subject of data set [14] is Candida albicans. The data set is described as follows: Antifungal activity against Candida albicans 8R assessed as reduction in fungal growth incubated for 24 hrs by CLSI based serial microbroth dilution method. In kind it is functional.
The subject of data set [15] is Cryptococcus neoformans. The data set is described as follows: Antifungal activity against Cryptococcus neoformans assessed as reduction in fungal growth incubated for 24 hrs by CLSI based serial microbroth dilution method. It is filed as functional.
For data set [16], the system named is Aspergillus niger. The data set is described as follows: Antifungal activity against Aspergillus niger 37a assessed as reduction in fungal growth incubated for 48 hrs by CLSI based serial microbroth dilution method. It is filed as functional.
The test system of data set [17] is Candida tropicalis. Put plainly: Antifungal activity against Candida tropicalis 3019 assessed as reduction in fungal growth incubated for 24 hrs by CLSI based serial microbroth dilution method. It is filed as functional.
In data set [18] the test system is Candida albicans. Put plainly: Antifungal activity against Candida albicans ATCC 24433 assessed as reduction in fungal growth incubated for 24 hrs by CLSI based serial microbroth dilution method. In kind it is functional.
Data set [19] has as its system Candida tropicalis. The data set is described as follows: Antifungal activity against Candida tropicalis 3019 assessed as reduction in fungal growth incubated for 48 hrs by CLSI based serial microbroth dilution method. In kind it is functional.
The test system of data set [20] is Trichophyton rubrum. The data set is described as follows: Antifungal activity against Trichophyton rubrum 2002 assessed as reduction in fungal growth incubated for 48 hrs by CLSI based serial microbroth dilution method. It is filed as functional.
The test system of data set [21] is Candida albicans. The data set is described as follows: Antifungal activity against Candida albicans 604M assessed as reduction in fungal growth incubated for 24 hrs by CLSI based serial microbroth dilution method. In kind it is functional.
Data set [22] has as its system Microsporum canis. The data set is described as follows: Antifungal activity against Microsporum canis B-200 assessed as reduction in fungal growth incubated for 24 hrs by CLSI based serial microbroth dilution method. In kind it is functional.
Data set [23] deals with Candida albicans. The data set is described as follows: Antifungal activity against Candida albicans CBS 8837 assessed as reduction in fungal growth incubated for 48 hrs by CLSI based serial microbroth dilution method. In kind it is functional.
For data set [24], the system named is Pichia kudriavzevii. The data set is described as follows: Antifungal activity against Candida krusei 432M assessed as reduction in fungal growth incubated for 48 hrs by CLSI based serial microbroth dilution method. In kind it is functional.
Data set [25] relates to Nakaseomyces glabratus. The data set is described as follows: Antifungal activity against Candida glabrata 61L assessed as reduction in fungal growth incubated for 48 hrs by CLSI based serial microbroth dilution method. It is filed as functional.
The subject of data set [26] is Aspergillus niger. Put plainly: Antifungal activity against Aspergillus niger 37a assessed as reduction in fungal growth incubated for 24 hrs by CLSI based serial microbroth dilution method. It is filed as functional.
Data set [27] is described as follows: 1-octanol/aqueous buffer distribution coefficient, logP of the compound at pH 7.4. It is filed as physicochemical.

Values after ≈ are worked out from the molar mass of the structure shown.

In general, MIC refers to the lowest concentration that inhibits growth of the organism. In the case of `O=c1c2sc(=S)n(-c3ccc(F)cc3)c2ncn1CCCN1CCN(CC(O)(Cn2cncn2)c2ccc(F)cc2F)CC1` (stereo not drawn), the MIC in [1] was found to be 4 µg/mL (≈ 6.22 µM); in data set [2] it was 32 µg/mL (≈ 49.8 µM); in data set [3], 0.06 µg/mL (≈ 0.0934 µM); in [4] it was 0.125 µg/mL (≈ 0.194 µM); in data set [5], 32 µg/mL (≈ 49.8 µM); in [6] it was 1 µg/mL (≈ 1.56 µM). Besides, the MIC in data set [7] was 4 µg/mL (≈ 6.22 µM); in data set [8], 8 µg/mL (≈ 12.4 µM); in [9], 1 µg/mL (≈ 1.56 µM); in data set [10], 16 µg/mL (≈ 24.9 µM); in data set [11], 32 µg/mL (≈ 49.8 µM); in [12] it was 16 µg/mL (≈ 24.9 µM). Besides, the MIC in [13] came out at 8 µg/mL (≈ 12.4 µM); in data set [14], 32 µg/mL (≈ 49.8 µM); in data set [15], 16 µg/mL (≈ 24.9 µM); in data set [16], 16 µg/mL (≈ 24.9 µM); in data set [17] it was 4 µg/mL (≈ 6.22 µM); in [18], 8 µg/mL (≈ 12.4 µM). Also, the MIC in data set [19] is 4 µg/mL (≈ 6.22 µM); in data set [20] it was 32 µg/mL (≈ 49.8 µM); in [21], 32 µg/mL (≈ 49.8 µM); in [22], 4 µg/mL (≈ 6.22 µM); in [23], 32 µg/mL (≈ 49.8 µM); in data set [24] it was 16 µg/mL (≈ 24.9 µM). The figures for the MIC in data set [25] and in data set [26] were 32 µg/mL (≈ 49.8 µM) and 16 µg/mL (≈ 24.9 µM), respectively.
A word on the logD: it is the decadic logarithm of the distribution of all forms, ionised or not, between an organic phase and buffer at a given pH. For `Cc1ccc(-n2c(=S)sc3c(=O)n(CCN4CCN(CC(O)(Cn5cncn5)c5ccc(F)cc5F)CC4)cnc32)cc1` (stereo not drawn), the MIC in [1] stood at 4 µg/mL (≈ 6.4 µM); in [2], 32 µg/mL (≈ 51.2 µM); in data set [3], 0.5 µg/mL (≈ 0.8 µM); in data set [4] it was 0.5 µg/mL (≈ 0.8 µM); in data set [5], 32 µg/mL (≈ 51.2 µM); in [6], 2 µg/mL (≈ 3.2 µM). Moreover, the MIC in [7] was determined as 32 µg/mL (≈ 51.2 µM); in data set [8], 16 µg/mL (≈ 25.6 µM); in [9], 4 µg/mL (≈ 6.4 µM); in data set [10], 16 µg/mL (≈ 25.6 µM); in data set [11], 32 µg/mL (≈ 51.2 µM); in data set [12] it was 32 µg/mL (≈ 51.2 µM). Further, the minimal inhibitory concentration (MIC) worked out at 16 µg/mL (≈ 25.6 µM) in data set [13]; 32 µg/mL (≈ 51.2 µM) in data set [14]; 32 µg/mL (≈ 51.2 µM) in data set [15]; 32 µg/mL (≈ 51.2 µM) in [16]; 4 µg/mL (≈ 6.4 µM) in data set [17]; 8 µg/mL (≈ 12.8 µM) in data set [18]. The minimal inhibitory concentration (MIC) worked out at 8 µg/mL (≈ 12.8 µM) in data set [19]; 32 µg/mL (≈ 51.2 µM) in data set [20]; 16 µg/mL (≈ 25.6 µM) in data set [21]; 32 µg/mL (≈ 51.2 µM) in data set [22]; 32 µg/mL (≈ 51.2 µM) in data set [23]; 32 µg/mL (≈ 51.2 µM) in [24]. Besides, the MIC in [25] and in data set [26] was 32 µg/mL (≈ 51.2 µM) each time. The compound also displayed a logD in data set [27] of 2.9.
Take `COc1ccccc1-n1c(=S)sc2c(=O)n(CC(=O)NCC(O)(Cn3cncn3)c3ccc(F)cc3F)cnc21` (stereo not drawn): in data set [27], the logD turned out to be 0.8.
Compound `COc1ccccc1-n1c(=S)sc2c(=O)n(CC(O)(Cn3cncn3)c3ccc(F)cc3F)cnc21` (stereo not drawn) showed a logD in data set [27] of 1.19.
For the compound `O=c1c2sc(=S)n(-c3ccc(F)cc3)c2ncn1CCN1CCN(CC(O)(Cn2cncn2)c2ccc(F)cc2F)CC1` (stereo not drawn), the MIC in data set [1] was found to be 32 µg/mL (≈ 50.9 µM); in [2], 32 µg/mL (≈ 50.9 µM); in data set [3], 0.5 µg/mL (≈ 0.795 µM); in data set [4], 1 µg/mL (≈ 1.59 µM); in [5], 32 µg/mL (≈ 50.9 µM); in data set [6], 32 µg/mL (≈ 50.9 µM). Besides, the MIC in data set [7], in data set [8], in data set [9], in data set [10], in data set [11] and in data set [12] was 32 µg/mL (≈ 50.9 µM) in each case. The MIC was determined as 8 µg/mL (≈ 12.7 µM) in [13]; 32 µg/mL (≈ 50.9 µM) in data set [14]; 32 µg/mL (≈ 50.9 µM) in data set [15]; 32 µg/mL (≈ 50.9 µM) in data set [16]; 32 µg/mL (≈ 50.9 µM) in data set [17]; 8 µg/mL (≈ 12.7 µM) in [18]. Further, the minimum inhibitory concentration (MIC) in data set [19], in [20], in data set [21], in [22], in [23] and in data set [24] was 32 µg/mL (≈ 50.9 µM) each time. In addition, the MIC in data set [25] and in data set [26] was 32 µg/mL (≈ 50.9 µM) each time.
For the compound `COc1ccccc1-n1c(=S)sc2c(=O)n(CC(O)CN3CCN(CC(O)(Cn4cncn4)c4ccc(F)cc4F)CC3)cnc21` (stereo not drawn), the logD in data set [27] turned out to be 2.91.
For `OC(Cn1cncn1)(Cn1cncn1)c1ccc(F)cc1F` [FLUCONAZOLE], the MIC was determined as 8 µg/mL (≈ 26.1 µM) in data set [1]; 64 µg/mL (≈ 209 µM) in data set [2]; 2 µg/mL (≈ 6.53 µM) in data set [3]; 4 µg/mL (≈ 13.1 µM) in [4]; 128 µg/mL (≈ 418 µM) in data set [5]; 2 µg/mL (≈ 6.53 µM) in [6]. In addition, the MIC worked out at 32 µg/mL (≈ 104 µM) in data set [7]; 32 µg/mL (≈ 104 µM) in [8]; 2 µg/mL (≈ 6.53 µM) in [9]; 128 µg/mL (≈ 418 µM) in data set [10]; 64 µg/mL (≈ 209 µM) in data set [11]; 16 µg/mL (≈ 52.2 µM) in data set [12]. Besides, the MIC in data set [13] was 4 µg/mL (≈ 13.1 µM); in data set [14], 128 µg/mL (≈ 418 µM); in data set [15], 16 µg/mL (≈ 52.2 µM); in data set [16] it was 64 µg/mL (≈ 209 µM); in data set [17] it was 1 µg/mL (≈ 3.27 µM); in data set [18], 4 µg/mL (≈ 13.1 µM). Also, the minimal inhibitory concentration (MIC) in data set [19] was found to be 2 µg/mL (≈ 6.53 µM); in data set [20] it was 128 µg/mL (≈ 418 µM); in data set [21] it was 64 µg/mL (≈ 209 µM); in data set [22], 32 µg/mL (≈ 104 µM); in [23], 128 µg/mL (≈ 418 µM); in [24] it was 64 µg/mL (≈ 209 µM). Moreover, the MIC was 32 µg/mL (≈ 104 µM) in data set [25] and 64 µg/mL (≈ 209 µM) in data set [26].

These data come from ChEMBL document CHEMBL4819051, “Synthesis and antifungal activity of new hybrids thiazolo[4,5-d]pyrimidines with (1H-1,2,4)triazole” (Bioorg Med Chem Lett, 2021).
